Test results published in patent publication US5705499A, “8-arylalkyl- and 8-arylheteroalkyl-5,11-dihydro-6H-dipyrido[3,2-B:2',3'-e][1]diazepines and their use in the treatment of HIV-1 infection” (Boehringer Ingelheim Pharmaceuticals, Inc., priority 1996, dated 1998).

system: C8166-45 cell line; test: MTT Assay (cytotoxicity); assay type: cell-based, human; conditions: C8166-45 cells, five days

Compound	MTT Assay CC30 [µM]
CCN1c2ncc([C@@H]3O[C@@H]3c3ccccc3)cc2C(=O)N(C)c2ccc(Cl)nc21 (relative stereo) [Example 46, 2Chloro-5,11-dihydro-11-ethyl-5-methyl-8-(2-phenyloxiranyl)-6H-dipyrido[3,2-b:2',3'-e][1,4]diazepin-6-one]	> 30
CCN1c2ncc(CCc3cc[n+]([O-])cc3)cc2C(=O)N(C)c2ccc(Cl)nc21 [Example 8, 2-Chloro-5,11-dihydro-11-ethyl-8-[2-(4-(N-oxopyridyl))ethyl]-5-methyl-6H-dipyrido[3,2-b:2',3'-e][1,4]diazepin-6-one]	> 256
CCN1c2ncc(CC(O)c3ccncc3)cc2C(=O)N(C)c2ccc(Cl)nc21 (centres unmarked) [Example 9, 2-Chloro-5,11-dihydro-11-ethyl-8-[2-hydroxy-2-(pyrid-4yl)ethyl-]5methyl-6H-dipyridol[3,2-b:2',3'-e][1,4]diazepin-6-one]	150
CCN1c2ncc(CC(F)c3ccncc3)cc2C(=O)N(C)c2ccc(Cl)nc21 (centres unmarked) [Example 11, 2-Chloro-5,11-dihydro-11-ethyl-8-[2-fluoro-2-(4-pyridyl)ethyl]-5-methyl-6H-dipyrido-[3,2-b:2',3'-e][1,4]diazepin-6-one]	150
CCN1c2ncc(CC(=O)c3ccncc3)cc2C(=O)N(C)c2ccc(Cl)nc21 [Example 12, 2-Chloro-5,11-dihydro-11-ethyl-8-[2-oxo-2-(4-pyridyl)ethyl]-5-methyl-6H-dipyrido[3,2-b:2',3'-e][1,4]diazepin-6-one]	250
CCN1c2ncc(CC(O)c3cc[n+]([O-])cc3)cc2C(=O)N(C)c2ccc(Cl)nc21 (centres unmarked) [Example 13, 2-Chloro-5,11-dihydro-11-ethyl-8-[2-hydroxy-2-(N-oxo-pyrid-4-yl)ethyl]-5-methyl-6H-dipyrido[3,2-b:2',3'-e][1,4]diazepin-6-one]	> 128
CCN1c2ncc(CCc3cccc(N)c3)cc2C(=O)N(C)c2ccc(Cl)nc21 [Example 22, 8-[2-(3-Aminophenyl)ethyl]-2-chloro-5,11-dihydro-11-ethyl-5-methyl-6H-dipyrido[3,2-b:2',3'-e][1,4]diazepin-6-one]	60
CCN1c2ncc(CCc3cccc(NC(N)=O)c3)cc2C(=O)N(C)c2ccc(Cl)nc21 [Example 26, 2Chloro-5,11-dihydro-11-ethyl-5-methyl-8-2-[(3-ureidophenyl)ethyl]-6H-dipyrido[3,2-b:2',3'-e][1,4]diazepin-6-one]	35
CCN1c2ncc(CCc3cccc4[nH]ccc34)cc2C(=O)N(C)c2cccnc21 [Example 29, 5,11-Dihydro-11-ethyl-5methyl-8-[2-(4-indolyl)ethyl]-6H-dipyrido[3,2-b:2',3'-e][1,4]diazepin-6-one]	> 60
CN1C(=O)c2cc(CCc3ccncc3)cnc2N(C2CC2)c2nc(Cl)ccc21 [Example 37, 2Chloro-11-cyclopropyl-5,11-dihydro-5-methyl-8-[2-(pyrid-4-yl)ethyl]-6H-dipyrido[3,2-b:2',3'-e][1,4]diazepin-6-one]	> 60
CCN1c2ncc(CCc3ccncc3)cc2C(=O)N(C)c2ccc(F)nc21 [Example 38, 5,11-Dihydro-11-ethyl-2-fluoro-5-methyl-8-[2-(pyrid-4-yl)ethyl]-6H-dipyrido[3,2-b:2',3'-e][1,4]diazepin-6-one]	150 to 175
CCN1c2ncc(CC(O)c3ccncc3)cc2C(=O)N(C)c2ccc(F)nc21 (centres unmarked) [Example 40, 5,11-Dihydro-11-ethyl-2-fluoro-8-[2-hydroxy-2-(pyrid-4-yl)ethyl]-5-methyl-6H-dipyrido[3,2-b:2',3'-e][1,4]diazepin-6-one]	> 20
CCN1c2ncc(CCc3ccc4ccccc4c3)cc2C(=O)N(C)c2ccc(F)nc21 [Example 41, 5,11-Dihydro-11-ethyl-2-fluoro-5-methyl-8-[2-(2-naphthyl)ethyl]-6H-dipyrido[3,2-b:2',3'-e][1,4]diazepin-6-one]	20
CCN1c2ncc(CCc3ccccc3C)cc2C(=O)N(C)c2cccnc21 [Example 62, 5,11-Dihydro-11-ethyl-5-methyl-8-[2-(2-tolyl)ethyl]-6H-dipyrido[3,2-b:2',3'-e][1,4]diazepin-6-one]	> 130
CCN1c2ncc(CCc3ccccc3N)cc2C(=O)N(C)c2cccnc21 [Example 64, 8-[2-(2-Aminophenyl)ethyl]-5,11-dihydro-11-ethyl-5-methyl-6H-dipyrido[3.2-b:2',3'-e][1,4]diazepin-6-one]	> 200
CCN1c2ncc(CCc3ccnc(C)c3)cc2C(=O)N(C)c2cccnc21 [Example 65, 5,11-Dihydro-11-ethyl-5-methyl-8-[2-(2-methylpyrid-4-yl)ethyl]-6H-dipyrido[3,2-b:2',3'-e][1,4]diazepin-6-one]	230
CCN1c2ncc(CCc3ccnc(C)c3)cc2C(=O)N(C)c2ccc(Cl)nc21 [Example 66, 2-Chloro-5,11-dihydro-11-ethyl-5-methyl-8-[2-(2-methylpyrid-4-yl)ethyl]-6H-dipyrido[3,2-b:2',3'-e][1.4]diazepin-6-one]	100
CCN1c2ncc(CCc3ccnc(CO)c3)cc2C(=O)N(C)c2ccc(Cl)nc21 [Example 67, 2-Chloro-5,11-dihydro-11-ethyl-5-methyl-8-[2-(2-hydroxymethyl-4-pyridyl)ethyl]-6H -dipyrido[3,2-b:2',3'-e][1,4]diazepin-6-one]	128

Compound	MTT Assay CC30 [µM]
CCN1c2ncc(CCc3ccnc(C(N)=O)c3)cc2C(=O)N(C)c2ccc(Cl)nc21 [Example 69, 2-Chloro-5,11-dihydro-11-ethyl-5-methyl-8-[2-(2-carboxamidopyrid-4-yl)ethyl]-6H-dipyrido[3,2-b:2',3'-e][1,4]diazepin-6-one]	> 128
CCN1c2ncc(CCc3ccccc3)cc2C(=O)Nc2c1nc(Cl)c(Br)c2C [Example 75, 3-Bromo-2-chloro-5,11-dihydro-11-ethyl-4-methyl-8-(2-phenylethyl)-6H-dipyrido[3,2-b:2',3'-e][1,4]diazepin-6-one]	> 130
CCN1c2ncc(CCc3ccccc3)cc2C(=O)Nc2c(C)ccnc21 [Example 76, 5,11-Dihydro-11-ethyl-4-methyl-8-(2-phenylethyl)-6H-dipyrido[3,2-b:2',3'-e][1,4]diazepin-6-one]	> 130
CCN1c2ncc(C=O)cc2C(=O)N(C)c2ccc(Cl)nc21 [Example 80, 2-chloro-5,11-dihydro-11-ethyl-8-formyl-5-methyl-6H-dipyrido[3,2-b:2',3'-e][1,4]diazepin-6-one]	65
CCN1c2ncc(CCl)cc2C(=O)N(C)c2ccc(Cl)nc21 [Example 82, 2-chloro-8-chloromethyl-5,11-dihydro-11-ethyl-5-methyl-6H-dipyrido[3,2-b:2',3'-e][1,4]diazepin-6-one]	> 256
CCN1c2ncc(CCO)cc2C(=O)N(C)c2ccc(Cl)nc21 [Example 85, 2-chloro-5,11-dihydro-11-ethyl-8-(β-hydroxy)ethyl-5-methyl-6H-dipyrido[3,2-b:2',3'-e][1,4]diazepin-6-one]	> 256
CCN1c2ncc(C(C)O)cc2C(=O)N(C)c2ccc(Cl)nc21 (stereo not drawn) [Example 86, 2-chloro-5,11-dihydro-11-ethyl-8-(α-hydroxy)ethyl-5-methyl-6H-dipyrido[3,2-b:2',3'-e][1,4]diazepin-6-one]	256
CCN1c2ncc(CNc3ccccc3)cc2C(=O)N(C)c2ccc(Cl)nc21 [Example 87, 2-chloro-5,11-dihydro-11-ethyl-5-methyl-8-(phenylamino)methyl-6H-dipyrido[3,2-b:2',3'-e][1,4]diazepin-6-one]	> 60
CCN1c2ncc(CNc3cccc(N)c3)cc2C(=O)N(C)c2ccc(Cl)nc21 [Example 88, 8-(3-aminophenylamino)methyl-2-chloro-5,11-dihydro-11-ethyl-5-methyl-6H-dipyrido[3,2-b:2',3'-e][1,4]diazepin-6-one]	60
CCN1c2ncc(O)cc2C(=O)N(C)c2ccc(Cl)nc21 [Example 89, 2-chloro-5,11-dihydro-11-ethyl-8-hydroxy-5-methyl-6H-dipyrido[3,2-b:2',3'-e[]1,4]diazepin-6-one]	130
CCN1c2ncc(OCc3ccccc3)cc2C(=O)N(C)c2ccc(Cl)nc21 [Example 90, 2-chloro-5,11-dihydro-11-ethyl-5-methyl-8-phenylmethoxy-6H-dipyrido[3,2-b:2',3'-e][1,4]diazepin-6-one]	> 60
CCN1c2ncc(COc3cc[n+]([O-])c(C)c3)cc2C(=O)N(C)c2ccc(Cl)nc21 [Example 94, 2-chloro-5,11-dihydro-11-ethyl-5-methyl-8-(N-oxo-2-methylpyrid-4-yloxy)methyl-6H-dipyrido[3,2-b:2',3'-e][1,4]diazepin-6-one]	200
CCN1c2ncc(COc3cc[n+]([O-])c(C(F)(F)F)c3)cc2C(=O)N(C)c2ccc(Cl)nc21 [Example 95, 2-chloro-5,11-dihydro-11-ethyl-5-methyl-8-(N-oxo-2-trifluoromethylpyrid-4-yloxy)methyl-6H-dipyrido[3,2-b:2',3'-e][1,4]diazepin-6-one]	100
CCN1c2ncc(COc3cc[n+]([O-])cc3)cc2C(=O)N(C)c2cccnc21 [Example 97, 5,11-dihydro-11-ethyl-5-methyl-8-((1-oxo-pyridin-4-yl)oxy)methyl-6H-dipyrido[3,2-b:2',3'-e][1,4]diazepin-6-one]	> 130
CCN1c2ncc(COc3cccc([N+](=O)[O-])c3)cc2C(=O)N(C)c2ccc(Cl)nc21 [Example 98]	> 60
CCN1c2ncc(COc3cccc(F)c3)cc2C(=O)N(C)c2ccc(Cl)nc21 [Example 101]	> 60
CCN1c2ncc(COc3ccc(F)cc3)cc2C(=O)N(C)c2ccc(Cl)nc21 [Example 103, 2-chloro-5,11-dihydro-11-ethyl-8-(4-fluorophenyloxy)methyl-5-methyl-6H-dipyrido[3,2-b:2',3'-e][1,4]diazepin-6-one]	> 60
